The values below come from patent US20050112198A1, “Bupropion formulation for sustained delivery” (priority 2003, published 2005).

For series [1] the following is noted: crystalline solid; cited from earlier work.
Series [2] in a line: In-house drug-excipient compatibility / storage stability of bupropion hydrochloride. Format: physicochemical. Particulars: for degradation of active drug in drug-excipient mixtures: 50° C./75% RH and 40° C./75% RH. Here is the method:
In order to study the compatibility of various excipients used in the proposed invention with bupropion hydrochloride, various drug-excipient mixtures were prepared. The each excipient amount relative to drug varied from 1:1 to 1:10. […] As predicted with the active drug, it has been observed during their analysis at various time intervals by liquid chromatography that most of the excipients studied are causing degradation of the active drug with a result of two distinct degradation peaks, in which all cellulose based excipients considered to be interacting uniquely with the pure drug compared to non-cellulose based excipients. […] The above changes were more pronounced in samples studied under open conditions compared to closed condition samples. […] Such degradation could be due to impurities like peroxide, heavy metals and bleaching agents present in such materials. Even though such impurities are present within acceptable limits, the moisture content carried in them should have acted as solvent to aggravate such reactions. […] The package component seems to play a vital role for stabilizing the dosage form: high-density polyethylene (HDPE) containers with additional thickness/weight are preferred apart from maintaining sufficient quantity of adsorbent added to the packaging system to minimize moisture and oxygen/odor levels.

As to `CC(NC(C)(C)C)C(=O)c1cccc(Cl)c1.Cl` (racemic) [Bupropion hydrochloride, (±)-1-(3-chlorophenyl)-2-[(1,1-dimethylethyl)amino]-1-propanone hydrochloride], the water solubility result in series [1] is “water soluble”. The “stability of the salt form alone” value in series [2] (in-house studies, normal storage conditions, without excipients) was “stable in normal storage conditions”. Moreover, the “degradation of active drug in drug-excipient mixtures” value in series [2] (mixtures with Kollidon VA64, Kollidon SR, methylcellulose, colloidal silicon dioxide, magnesium stearate, enteric coating materials) is “minimum amount or no change”; in series [2] (mixtures with hydroxypropyl cellulose, polyethylene oxide and sodium carboxymethyl cellulose, 1:1 to 1:10, liquid chromatography) it was “rapid degradation”.
